Data on 3 compounds can be found in ChEMBL document CHEMBL1201862, “PubChem BioAssay data set” (2004).

One assay deals with T1, Bcl-2-like protein 10 (Homo sapiens, UniProt Q9HD36).
T1 sequence (Q9HD36 whole entry): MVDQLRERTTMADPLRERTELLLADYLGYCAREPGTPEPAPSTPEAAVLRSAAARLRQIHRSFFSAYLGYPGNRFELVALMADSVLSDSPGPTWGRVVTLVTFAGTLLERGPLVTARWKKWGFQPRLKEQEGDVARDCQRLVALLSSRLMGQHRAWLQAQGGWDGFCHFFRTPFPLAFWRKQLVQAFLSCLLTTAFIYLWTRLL
The assay is described as follows: displacers of TR3 peptide from Bcl-B, primary screen, selectivity assay for Bfl-1 inhibitor project, biochemical, fluorescence polarization, FITC-TR3 peptide (AID 748). (In fluorescence polarisation assays a small probe gives low polarisation when free and higher when bound to something large.)

In a further assay the target is T2, Estrogen receptor (Homo sapiens, UniProt P03372).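 Note: potency for inhibiting coactivator peptide recruitment to the receptor.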
T2 sequence (P03372 whole entry): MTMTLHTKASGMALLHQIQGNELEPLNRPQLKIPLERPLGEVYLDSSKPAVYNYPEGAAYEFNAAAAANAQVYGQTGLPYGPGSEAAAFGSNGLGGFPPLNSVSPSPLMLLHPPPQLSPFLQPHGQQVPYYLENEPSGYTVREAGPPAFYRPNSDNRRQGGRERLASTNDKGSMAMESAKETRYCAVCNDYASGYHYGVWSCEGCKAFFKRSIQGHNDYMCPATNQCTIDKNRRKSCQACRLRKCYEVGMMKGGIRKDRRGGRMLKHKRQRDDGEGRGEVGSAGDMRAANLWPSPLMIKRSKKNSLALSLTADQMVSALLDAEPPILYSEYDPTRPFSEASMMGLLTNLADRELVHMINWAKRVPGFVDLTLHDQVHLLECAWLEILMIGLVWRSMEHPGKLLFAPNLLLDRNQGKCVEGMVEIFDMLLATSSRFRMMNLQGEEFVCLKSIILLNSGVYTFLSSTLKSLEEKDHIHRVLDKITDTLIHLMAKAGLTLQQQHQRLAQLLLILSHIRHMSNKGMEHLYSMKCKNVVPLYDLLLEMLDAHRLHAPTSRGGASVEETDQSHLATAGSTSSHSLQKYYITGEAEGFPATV

The test system of assay [1] is HEK293. The assay is described as follows: NOD2 signaling inhibitors in MDP-stimulated cells, cell-based, uHTS, luminescence (AID 2001). It counts as functional. Conditions: Homo sapiens.
The test system of assay [2] is BJ. Nature of the assay: cytotoxicity toward BJ-TERT fibroblasts, dose response, cell-based, RAS-independent, luminescence (AID 1933). The following applies: Homo sapiens. It counts as functional.
Assay [3] has as its system BJ. The assay is described as follows: cytotoxicity toward BJ-TERT-LT-ST fibroblasts, dose response, cell-based, RAS-independent, luminescence (AID 1935).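 Note: BJ fibroblasts immortalized with TERT plus LT and ST oncogenes.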 The following applies: Homo sapiens. It counts as functional.
The nature of assay [4]: inhibitors of firefly luciferase expression or activity, dose response, H4 neuroglioma cells, luminescence (AID 1990). It counts as functional, cell-based.
Assay [5] concerns HEK293. Nature of the assay: NOD1 signaling inhibitors, primary screen, cell-based, luminescence, uHTS (AID 1578). It counts as functional. The following applies: Homo sapiens.
Assay [6] has as its target Luciferin 4-monooxygenase (Photinus pyralis, UniProt P08659). The assay is described as follows: Counter Screen for Luciferase-based Assay Positives. [Related pubchem assays: 620, 618, 411 ]. A general note: The purpose of a counterscreen is to sort out artefacts and off-target activity.
For the next assay, the system named is HT-1080. Nature of the assay: cytotoxicity in HT1080 fibrosarcoma cells, cell-based, fluorescence readout (AID 620). It counts as functional. Conditions: Homo sapiens.
Assay [7] relates to BJ. Nature of the assay: cells. It counts as functional, cell-based. The following applies: Homo sapiens.
The test system of assay [8] is HEK293. Nature of the assay: cells. In kind it is functional, cell-based. The following applies: Homo sapiens.
The subject of assay [9] is HEK293. The assay is described as follows: cells. It counts as functional, cell-based. Conditions: Homo sapiens. This is another data set of the same source.
The nature of assay [10]: cytotoxicity toward DRD oncogenic fibroblasts, dose response, cell-based, non-viral oncogenic, luminescence (AID 1934). In kind it is functional. The following applies: Homo sapiens.
Assay [11] can be described thus: Luminescence-based dose response cell-based high throughput screening assay for cytotoxic compounds using the IEC-6 intestinal epithelial cell line. [Related pubchem assays: 1858 (Summary AID.), 1825 (Counterscreen.), 1907 (Confirmation screen.)]. In kind it is functional.
In assay [12] the target is T3, Lysine-specific demethylase 4C (Homo sapiens, UniProt Q9H3R0).
T3 sequence (Q9H3R0 whole entry): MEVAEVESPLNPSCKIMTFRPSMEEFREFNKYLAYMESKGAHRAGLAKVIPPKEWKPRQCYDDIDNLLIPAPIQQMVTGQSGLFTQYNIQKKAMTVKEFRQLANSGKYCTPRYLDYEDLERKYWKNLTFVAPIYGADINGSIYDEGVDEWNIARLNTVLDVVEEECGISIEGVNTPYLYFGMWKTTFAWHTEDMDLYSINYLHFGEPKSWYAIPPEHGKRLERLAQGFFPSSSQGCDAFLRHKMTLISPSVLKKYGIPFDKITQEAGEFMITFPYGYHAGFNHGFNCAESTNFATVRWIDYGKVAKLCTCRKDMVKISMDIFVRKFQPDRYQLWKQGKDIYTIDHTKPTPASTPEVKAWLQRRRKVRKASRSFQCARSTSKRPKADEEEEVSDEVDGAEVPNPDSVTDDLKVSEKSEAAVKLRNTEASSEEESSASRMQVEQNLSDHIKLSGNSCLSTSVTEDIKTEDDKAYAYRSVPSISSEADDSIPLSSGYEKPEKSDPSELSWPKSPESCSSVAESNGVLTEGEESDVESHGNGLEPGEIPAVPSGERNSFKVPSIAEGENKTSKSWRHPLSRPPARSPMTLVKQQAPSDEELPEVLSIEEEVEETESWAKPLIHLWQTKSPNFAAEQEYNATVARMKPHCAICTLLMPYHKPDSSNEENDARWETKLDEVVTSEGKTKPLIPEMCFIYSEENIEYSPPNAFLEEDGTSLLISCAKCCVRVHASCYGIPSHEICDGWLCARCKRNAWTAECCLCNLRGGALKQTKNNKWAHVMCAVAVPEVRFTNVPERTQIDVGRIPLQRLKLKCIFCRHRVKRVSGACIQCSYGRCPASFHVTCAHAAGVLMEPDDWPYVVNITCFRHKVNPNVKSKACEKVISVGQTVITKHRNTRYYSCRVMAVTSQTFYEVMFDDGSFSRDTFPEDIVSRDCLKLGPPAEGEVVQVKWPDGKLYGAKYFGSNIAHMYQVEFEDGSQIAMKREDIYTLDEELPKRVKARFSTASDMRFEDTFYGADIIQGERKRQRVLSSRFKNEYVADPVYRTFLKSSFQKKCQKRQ
Nature of the assay: GASC-1 (JMJD2C) histone demethylase inhibitors, dose response, biochemical, DELFIA europium, cherry-picked samples (AID 488835). It counts as functional.

The target in assay [13] is DNA dC->dU-editing enzyme APOBEC-3G (Homo sapiens, UniProt Q9HC16). Nature of the assay: Dose Response confirmation of small molecule APOBEC3G DNA Deaminase Inhibitors via a fluorescence-based single-stranded DNA deaminase assay. [Related pubchem assays (depositor defined):AID493012, AID493028]. It counts as functional.
Sequence of DNA dC->dU-editing enzyme APOBEC-3G (Q9HC16 whole entry): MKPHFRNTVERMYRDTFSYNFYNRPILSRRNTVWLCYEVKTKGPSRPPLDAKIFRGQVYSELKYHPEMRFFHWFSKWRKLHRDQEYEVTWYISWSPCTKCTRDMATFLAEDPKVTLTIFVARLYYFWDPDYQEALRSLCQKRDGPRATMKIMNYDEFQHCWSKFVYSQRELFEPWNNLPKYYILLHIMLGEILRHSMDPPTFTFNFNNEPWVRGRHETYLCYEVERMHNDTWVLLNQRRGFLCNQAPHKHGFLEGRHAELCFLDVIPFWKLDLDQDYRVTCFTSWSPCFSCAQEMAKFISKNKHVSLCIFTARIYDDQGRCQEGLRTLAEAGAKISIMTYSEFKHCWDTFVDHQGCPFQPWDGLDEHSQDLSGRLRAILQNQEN
In assay [14] the target is Eukaryotic translation initiation factor 4E (Mus musculus, UniProt P63073). Nature of the assay: eIF4E–eIF4G protein interaction inhibitors, dose response, biochemical, TR-FRET (AID 855).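 Note: potency for disrupting eIF4E binding to eIF4GI seen as loss of FRET.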 It counts as functional. In general terms: In TR-FRET formats the signal depends on donor and acceptor labels being close together.
Sequence of Eukaryotic translation initiation factor 4E (P63073 whole entry): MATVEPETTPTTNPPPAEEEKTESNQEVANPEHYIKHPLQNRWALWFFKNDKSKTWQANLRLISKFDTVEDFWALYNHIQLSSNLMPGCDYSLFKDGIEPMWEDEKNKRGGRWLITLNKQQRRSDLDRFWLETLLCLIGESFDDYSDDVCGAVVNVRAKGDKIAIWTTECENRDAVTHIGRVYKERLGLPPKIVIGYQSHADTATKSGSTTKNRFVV
Assay [15] deals with T4, Mannose-6-phosphate isomerase (Homo sapiens, UniProt P34949).
T4 sequence (P34949 whole entry): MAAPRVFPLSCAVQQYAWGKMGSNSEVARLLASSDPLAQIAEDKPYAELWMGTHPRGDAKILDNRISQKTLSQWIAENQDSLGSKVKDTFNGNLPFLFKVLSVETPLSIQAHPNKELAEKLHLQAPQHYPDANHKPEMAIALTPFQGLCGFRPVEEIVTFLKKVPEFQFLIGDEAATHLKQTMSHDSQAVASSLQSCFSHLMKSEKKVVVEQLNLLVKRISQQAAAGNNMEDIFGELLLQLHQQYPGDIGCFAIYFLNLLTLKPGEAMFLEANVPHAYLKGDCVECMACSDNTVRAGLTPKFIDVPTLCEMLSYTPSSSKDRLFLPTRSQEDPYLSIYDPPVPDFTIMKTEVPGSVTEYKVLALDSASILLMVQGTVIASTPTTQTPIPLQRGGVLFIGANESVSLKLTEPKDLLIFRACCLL
The assay is described as follows: inhibitors of human PMI, primary screen, biochemical, fluorescence intensity, coupled assay (AID 1209).

In assay [16] the target is T4, Mannose-6-phosphate isomerase. The assay is described as follows: human PMI inhibitors, high substrate, primary screen, biochemical, fluorescence intensity, high mannose 6-phosphate (AID 1220).

SMILES strings stand for the structures. Active and inactive are the calls of the source.

Sequence of Luciferin 4-monooxygenase (P08659 whole entry): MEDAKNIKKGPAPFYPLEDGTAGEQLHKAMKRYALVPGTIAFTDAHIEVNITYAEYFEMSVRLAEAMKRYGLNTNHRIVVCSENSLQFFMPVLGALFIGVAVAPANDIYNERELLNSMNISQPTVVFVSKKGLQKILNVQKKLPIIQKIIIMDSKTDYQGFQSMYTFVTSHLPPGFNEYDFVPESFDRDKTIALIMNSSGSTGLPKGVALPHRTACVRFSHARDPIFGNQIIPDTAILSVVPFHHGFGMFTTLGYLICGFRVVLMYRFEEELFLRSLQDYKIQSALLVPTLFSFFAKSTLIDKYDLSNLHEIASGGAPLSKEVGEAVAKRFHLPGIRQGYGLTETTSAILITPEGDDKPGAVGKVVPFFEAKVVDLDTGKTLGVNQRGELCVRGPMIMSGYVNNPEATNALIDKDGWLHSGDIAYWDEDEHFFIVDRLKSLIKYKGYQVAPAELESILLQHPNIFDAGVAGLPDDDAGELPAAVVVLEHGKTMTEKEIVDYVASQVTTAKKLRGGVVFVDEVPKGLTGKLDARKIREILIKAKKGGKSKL

In general, IC50 refers to the concentration needed to halve the response being measured. For `CCOC(=O)C1=C(C)S/C(=C\N(C)C)C1=O`, the IC50 was 37.8 µM (active) on Bcl-2-like protein 10 and 40.3 µM (not active) at Estrogen receptor.

For orientation: EC50 means the concentration needed to bring the measured effect to its halfway point. On to `COc1cccc(Cn2c(NCc3cccnc3)nc3c2c(=O)n(C)c(=O)n3C)c1`, for which the IC50 is 14.6 µM (inactive) in the assay on HEK293 [1], > 20 µM (inactive) in the assay with HEK293 [8], > 20 µM (inactive) in the assay on HEK293 [9] and 0.425 µM (active) in assay [11]. The EC50 with BJ [2] is > 150 µM (not active); in the assay with BJ [3] it was > 150 µM (inconclusive); in [4] it was 12 µM (active); in the assay on HEK293 [5], > 20 µM (inactive); in assay [6], 39.5 µM (active); in the assay on HT-1080, > 50 µM (not active). In addition, the EC50 with BJ [7] was 4.58 µM (inconclusive); in assay [10], 5.5 µM (active).

Usually AC50 stands for the midpoint of the concentration-response curve, whichever way the signal moves. Take `COc1ccc(/N=c2\ssnc2Cl)cc1`: the AC50 in assay [12] is 39.1 µM (active). Besides, the IC50 in assay [13] is 9.96 µM (active); in [14] it was 43.2 µM (inactive); in assay [15], 14.4 µM (active); in assay [16], 21.6 µM (active).
